This is an account of results in patent US20100004234A1, “SPECIFIC KINASE INHIBITORS” (Kosan Biosciences Incorporated, priority 2004, published 2010).

Structures are written as SMILES.

Assay [1] deals with HT29 (Human colon, B-Raf V599E). The assay is described as follows: Cell proliferation assay (Cell Titer Glo). The assay is classed as cell-based. The settings on record: HT-29; HT29 (Human colon, B-Raf V599E); Tables 1 and 4; read-out: Kinase Inhibitor IC50. As for the experimental part:
(§1) In one illustrative method, cells are treated with various concentrations of the inhibitor in 96 well plates, incubated at 37° C./5% CO2 for three days, and analyzed using the Cell Titer Glo kit (Promega).
(§2) COLO829 is a human melanoma cell line. HT29 is a human colon cancer cell line. Both cell lines have a V600E B-Raf mutation. SKOV3 is an ovarian cancer cell line having wild-type B-Raf. EKR2 (extra-cellular signal regulated kinase 2) is a kinase in the Ras/B-Raf MAP kinase cascade pathway.

Assay [2] deals with COLO829 (Human melanoma, B-Raf V599E). As to the kind of experiment: Cell proliferation assay (Cell Titer Glo). In kind it is cell-based. The settings on record: COLO-829. As for the experimental part: as §1, §2
A further assay relates to panel of 120 kinases. The settings on record: panel of some 120 kinases; cited from earlier work.
Assay [3] has as its system DU4475 (Human breast, B-Raf V599E). As to the kind of experiment: Cell proliferation assay (Cell Titer Glo). The assay is classed as cell-based. The settings on record: DU-4475; DU4475 (Human breast, B-Raf V599E); Tables 1 and 4; read-out: Kinase Inhibitor IC50. How it is done: as §1
For assay [4], the system named is MV4-11 (Human leukemia Flt3-ITD). The assay is described as follows: Cell proliferation assay (Cell Titer Glo). In kind it is cell-based. As for the experimental part: as §1
Assay [5] has as its system P815 (Mouse mastocytoma, KIT D814Y). The assay is described as follows: Cell proliferation assay (Cell Titer Glo). In kind it is cell-based. As for the experimental part: as §1
For assay [6], the system named is WM266-4 (Human melanoma, B-Raf V599D). The assay is described as follows: Cell proliferation assay (Cell Titer Glo). The assay is classed as cell-based. The settings on record: WM 266-4; WM266-4 (Human melanoma, B-Raf V599D); Tables 1 and 4; read-out: Kinase Inhibitor IC50. As for the experimental part: as §1
The subject of assay [7] is A375 (Human melanoma, B-Raf V599E). The assay is described as follows: Cell proliferation assay (Cell Titer Glo). The settings on record: A-375; A375 (Human melanoma, B-Raf V599E); Tables 1 and 4; read-out: Kinase Inhibitor IC50. In kind it is cell-based. How it is done: as §1
Assay [8] relates to EOL-1 (Human leukemia FLP1L1-PDGFRA). The assay is described as follows: Cell proliferation assay (Cell Titer Glo). In kind it is cell-based. The settings on record: EOL1; EOL-1 (Human leukemia FLP1L1-PDGFRA); read-out: Kinase Inhibitor IC50. As for the experimental part:
as §1

Consider `CCN(CC)CCNC(=O)c1c(C)[nH]c(/C=C2\C(=O)Nc3ccc(F)cc32)c1C` [SU11248], for which the IC50 worked out at 4.2 µM in [1]; 7.1 µM in assay [2] (COLO829 (Human melanoma, B-Raf V599E), Tables 1 and 4, read-out: Kinase Inhibitor IC50); 4 µM in assay [3]; 0.01 µM in [4] (MV4-11 (Human leukemia Flt3-ITD), read-out: Kinase Inhibitor IC50); 0.32 µM in assay [5] (P815 (Mouse mastocytoma, KIT D814Y), read-out: Kinase Inhibitor IC50); 8.2 µM in assay [6]. Further, the 50% inhibitory concentration (IC50) in assay [7] was determined as 5.4 µM; in assay [8], 0.0017 µM. Further, the concentration for 50% growth inhibition (GI50) in [2] (Homo sapiens, melanoma cell line COLO829, read-out: GI50) was found to be 7.1 µM; in assay [4] (Homo sapiens, MV4-11, AML (FLT3 ITD) cell line MV-4-11, read-out: GI50) it was 0.012 µM; in [5] (mouse mastocytoma cell line P815, constitutively active cKIT (D814Y), read-out: GI50), 0.32 µM. In addition, the “number of kinases inhibited” value in the assay with panel of 120 kinases is recorded as about 79.
